From EP4806892A1, “CEREBLON E3 UBIQUITIN LIGASE INHIBITOR” (GAN & LEE PHARMACEUTICALS CO., LTD., priority 2023, dated 2025)

What was measured:
Assay type in all cases: cell-based
[1] = target: T1, AR protein (Homo sapiens, UniProt P10275); test: AR protein degradation in VCaP cells (Western blot); settings: 8h
T1 construct: AR-positive human prostate cancer cells VCaP (cell source: ATCC); host or cells: VCaP
T1 sequence (P10275 1-920): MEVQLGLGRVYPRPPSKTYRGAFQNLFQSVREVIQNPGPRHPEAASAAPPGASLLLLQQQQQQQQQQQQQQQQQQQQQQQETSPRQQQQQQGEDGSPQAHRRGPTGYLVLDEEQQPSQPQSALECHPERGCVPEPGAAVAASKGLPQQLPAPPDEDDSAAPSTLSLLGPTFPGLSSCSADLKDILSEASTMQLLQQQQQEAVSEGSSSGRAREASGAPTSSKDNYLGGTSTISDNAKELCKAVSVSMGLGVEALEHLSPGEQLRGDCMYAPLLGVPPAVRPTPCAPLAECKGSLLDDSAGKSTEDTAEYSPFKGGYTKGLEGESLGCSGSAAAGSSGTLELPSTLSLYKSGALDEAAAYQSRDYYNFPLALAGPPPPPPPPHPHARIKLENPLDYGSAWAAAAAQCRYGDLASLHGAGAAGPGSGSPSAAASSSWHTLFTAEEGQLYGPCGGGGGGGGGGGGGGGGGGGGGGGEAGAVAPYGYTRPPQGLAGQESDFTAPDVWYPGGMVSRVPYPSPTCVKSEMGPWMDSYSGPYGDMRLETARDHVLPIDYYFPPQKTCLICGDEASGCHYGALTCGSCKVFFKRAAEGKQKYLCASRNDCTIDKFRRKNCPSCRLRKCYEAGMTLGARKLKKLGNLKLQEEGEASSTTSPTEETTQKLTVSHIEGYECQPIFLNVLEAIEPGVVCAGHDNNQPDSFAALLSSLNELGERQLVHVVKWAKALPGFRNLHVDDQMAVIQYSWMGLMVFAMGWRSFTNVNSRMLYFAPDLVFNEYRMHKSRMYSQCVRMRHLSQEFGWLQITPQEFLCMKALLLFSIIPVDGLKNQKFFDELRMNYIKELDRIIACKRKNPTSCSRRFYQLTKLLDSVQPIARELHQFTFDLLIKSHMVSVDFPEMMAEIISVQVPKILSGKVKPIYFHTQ
Procedure: AR-positive human prostate cancer cells VCaP (cell source: ATCC) were cultured in DMEM (GiBco catalog number 11995-065) containing 10% FBS (Hyclone catalog number SH30406.05), and the cells were inoculated in a six-well microplate (Thermo catalog number 140675) at a density of 3 × 10^5 cells/well. After being cultured overnight in a carbon dioxide incubator (ESCO), the prepared compound of the present invention and the positive control sample ARV-766 (energy chemical) solution of different concentrations were added at a volume of 1 µL/well to make the final concentrations of the compound and the positive control sample reach 5nM and 0.5nM, respectively. At the same time, the corresponding solvent control was set and cultured for 8h. After 8h of culture, the culture medium was removed, and the cells were washed with PBS. RIPA lysis buffer containing 1% Protease Inhibitor Cocktail was added. After lysis and centrifugation, a total protein extract was obtained, and the protein concentration in the extract was detected by BCA method. Protein electrophoresis was performed using SDS-PAGE, and then the protein was transferred to a PVDF (Millipore Sigma catalog number PSRP010R5) membrane at a constant voltage of 100V for 60min. The PVDF membrane was placed in a 5% milk powder 1×TBST solution and blocked at room temperature for 1h. The primary antibody solution (Anti-Androgen receptor, Cell Signaling Technology catalog number: 5153S; 1:2000 dilution) was prepared and incubated at 4°C overnight. The primary antibody solution was discarded and the PVDF membrane was washed with 1×TBST for 5 minutes each time, three times. The secondary antibody solution (Thermo catalog number SA5-35571; 1:7500 dilution) was prepared and incubated at room temperature for 1 hour. The secondary antibody solution was discarded and the PVDF membrane was washed with 1×TBST for 5 minutes each time, three times. A dual-color infrared laser imaging system (Licor catalog number Odyssey CLX) was used for Western membrane imaging. The Image Studio software was used to analyze the grayscale of the bands. GAPDH protein bands were also detected for each sample as an internal reference. The AR protein degradation rate of the compound and the positive control sample was calculated based on the grayscale of the protein bands. Among them, "A" means degradation rate ≥ 50%, "B" means 50%> degradation rate ≥ 20%, "C" means 20% degradation rate ≥ 10%, and "D" means degradation rate less than 10%.

[2] = tested on: TNFα; test: LPS-induced TNFα secretion by PBMC (HTRF detection); settings: Homo sapiens, hPBMC, 20 hours compound then LPS 200 ng/mL for 5 hours, read-out: IC50 (inhibition of LPS-induced TNFα)
Procedure: (§1) After thawing, cryopreserved hPBMC (FPB003F-C, Shanghai OriBiotech) cells were resuspended in RPMI 1640 medium (30-2001,ATCC) containing 10% inactivated FBS (10099141C, Gibco) and cultured overnight at 37°C and 5% CO2. The next day, hPBMC cells were seeded in a 96-well cell culture plate at a density of 2 × 10^5 cells/well/100 µL (2 × 10^6 cells/mL), and 100 µL of compound in dimethyl sulfoxide solution (final concentration 0.0064-2500 nM) was added. […] The cell plate was placed in a 37°C, 5% CO2 incubator for 5 hours, and then centrifuged at 1000 rpm for 15 minutes. 100 µL of cell supernatant was collected from each well for cytokine concentration testing, which was tested immediately or frozen at -80°C for testing.
The TNFα concentration in the supernatant of LPS-induced THP-1 cells was determined using the TNF […] detection kit (62[…], PerkinElmer).
TNFα standard solutions of varying concentrations were prepared according to the product instructions, ranging from 0 to 2500 pg/mL. Equal volumes of Eu Cryptate antibody (1×) and d2 antibody (1×) were used to prepare the antibody mixture. 16 µL of standard solution or sample supernatant and 4 µL of the antibody mixture were added to each well of a 384-well white plate. The mixture was centrifuged at 800 rpm for 1 minute and incubated at room temperature for 2 hours. The absorbance at 620 nm and […] was read using a microplate reader (SPARK m1000pro, TECAN). A standard curve was plotted using the signal values of each TNFα standard solution. The TNFα concentration in each sample was determined based on the corresponding concentration of the signal value on the standard curve. The inhibitory rate of the compound on LPS-induced TNFα expression in THP-1 cell supernatants at different drug concentrations was calculated based on the TNFα concentration. The inhibition rate data were plotted in GraphPad Prism 8.0 software, and the IC50 value was calculated. Inhibition Rate = [1−(OD(Sample)−OD(Blank))/(OD(Control)−OD(Blank))] × 100% [formula] Table 9: Degradation effect of example compounds on IRAK4 in PBMC cells

[3] = tested on: IL-6; test: LPS-induced IL-6 secretion by hPBMC (ELISA); settings: Homo sapiens, 20 h compound then LPS 200 ng/mL for 5 h; for inhibition at […]: 2500nM, read-out: Inhibition Rate of IL-6 (2500nM)
Procedure: as §1, with “OriBiotech.)” for “OriBiotech)”, “(30-2001, ATCC)” for “(30-2001,ATCC)”, “h,” for “hours,”, “min.” for “minutes.”, “awhich” for “which”
The IL-6 concentration in the supernatant of hPBMC cells induced by LPS was determined using a Human IL-6 ELISA kit (D6050, RD).
IL-6 standard solutions of varying concentrations were prepared according to the product instructions, ranging from 0 to 300 pg/mL. 100 µL of Assay Diluent RD1W and 100 µL of standard solution or sample supernatant were added to a pre-coated ELISA plate and incubated at room temperature for 2 hours. After washing the plate four times with 1× wash buffer, then 200 µL of Human IL-6 Conjugate was added and incubated at room temperature for 2 hours. After washing the plate four times with 1× wash buffer, then 200 µL of Substrate Solution was added and incubated at room temperature for 20 minutes. Finally, 50 µL of Stop Solution was added to terminate the reaction. The absorbance at 450 nm and 570 nm were read using a microplate reader (SPARK m1000pro, TECAN). The standard curve was plottd by the signal value of each concentration of IL-6 standard solution, and the IL-6 concentration in each sample was determined according to the corresponding concentration of the signal value of each well on the standard curve. The inhibition rate of the compound on LPS-induced IL-6 in the hPBMC cell supernatant at different drug concentrations was calculated according to the IL-6 concentration. The inhibition rate data were plotted in GraphPad Prism 8.0 software to calculate the IC50 value. Inhibition Rate = [1−(OD(sample)−OD(blank))/(OD(control)−OD(blank))] × 100% [formula] Table 10: Inhibitory effect of Example compounds on LPS-induced IL-6 secretion by hPBMC

Structure (SMILES) | Degradation rate of AR protein in VCAP cells ([1]; 0.5 nM) | Degradation rate of AR protein in VCAP cells ([1]; 5 nM) | IC50 [2] | inhibition at […] [3] | inhibition at 0.02 µM ([3]; 20nM, read-out: Inhibition Rate of IL-6 (20nM))
C[C@H]1CC2(CCN(c3ccc(C(=O)N4CCC(F)(CN5CCC6(CC5)COc5cc(N7CCC(=O)NC7=O)ccc56)CC4)cc3)CC2)CN1c1ccc(C#N)c(Cl)c1 [A-P-265, (S)-2-chloro-4-(8-(4-(4-((6-(2,4-dioxotetrahydropyrimidin-1(2H)-yl)-2H-spiro[benzofuran-3,4'-piperidine]-1'-yl)methyl)-4-fluoropiperidine-1-carbonyl)phenyl)-3-methyl-2,8-diazaspiro[4.5]dec-2-yl)benzonitrile] | B (50%> degradation rate ≥ 20%) | A (degradation rate ≥ 50%) |  |  | 
O=C1CCN(c2ccc3c(c2)CC2(CO3)CN(CC3CCN(C(=O)C4CCC(n5cc(NC(=O)c6cnn7ccc(N8CC9CC8CO9)nc67)c(C(F)F)n5)CC4)CC3)C2)C(=O)N1 (centres unmarked) [IR-P-6] |  |  | 95.6 nM | 65% | 
O=C1CCN(c2ccc3c(c2)CC2(CCN(CC4CCN(C(=O)C5CCC(n6cc(NC(=O)c7cnn8ccc(N9CC%10CC9CO%10)nc78)c(C(F)F)n6)CC5)CC4)CC2)O3)C(=O)N1 (centres unmarked) [IR-P-7] |  |  |  | 46% | 
Cn1c(=O)n(C2CCC(=O)NC2=O)c2cccc(C#CCOC3CCN(C[C@H]4CC[C@H](n5cc(NC(=O)c6cnn7ccc(N8C[C@H]9C[C@@H]8CO9)nc67)c(C(F)F)n5)CC4)CC3)c21 (some centres unmarked) [KT-474, reference compound] |  |  | 52.3 nM | 85% | 63%
